Laboratory results reported in ChEMBL document CHEMBL1773029, “1-Substituted 4-(3-Hydroxyphenyl)piperazines Are Pure Opioid Receptor Antagonists” (ACS Med Chem Lett, 2010).

What was measured:
Type in all cases: functional, cell-based
[1] = target: Kappa-type opioid receptor (Homo sapiens) (UniProt P41145); test: Antagonist activity at human kappa opioid receptor expressed in CHO cells assessed as inhibition of U69,593 stimulated [35S]GTPgammaS binding
[2] = target: Mu-type opioid receptor (Homo sapiens) (UniProt P35372); test: Antagonist activity at human mu opioid receptor expressed in CHO cells assessed as inhibition of DAMGO stimulated [35S]GTPgammaS binding
Chain of Mu-type opioid receptor (Homo sapiens) (P35372 whole entry): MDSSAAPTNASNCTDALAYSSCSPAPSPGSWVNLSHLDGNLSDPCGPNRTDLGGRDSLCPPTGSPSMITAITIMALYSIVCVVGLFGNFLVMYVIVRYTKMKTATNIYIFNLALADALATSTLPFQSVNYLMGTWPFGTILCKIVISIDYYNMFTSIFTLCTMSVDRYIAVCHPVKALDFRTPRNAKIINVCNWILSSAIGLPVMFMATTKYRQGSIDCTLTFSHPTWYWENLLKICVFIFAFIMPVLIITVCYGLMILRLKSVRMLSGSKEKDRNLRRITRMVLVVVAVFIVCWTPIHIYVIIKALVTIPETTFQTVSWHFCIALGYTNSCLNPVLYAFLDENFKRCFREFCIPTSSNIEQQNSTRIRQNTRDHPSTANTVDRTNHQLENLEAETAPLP

[3] = target: Delta-type opioid receptor (Homo sapiens) (UniProt P41143); test: Antagonist activity at human delta opioid receptor expressed in CHO cells assessed as inhibition of DPDPE stimulated [35S]GTPgammaS binding
Chain of Delta-type opioid receptor (Homo sapiens) (P41143 whole entry): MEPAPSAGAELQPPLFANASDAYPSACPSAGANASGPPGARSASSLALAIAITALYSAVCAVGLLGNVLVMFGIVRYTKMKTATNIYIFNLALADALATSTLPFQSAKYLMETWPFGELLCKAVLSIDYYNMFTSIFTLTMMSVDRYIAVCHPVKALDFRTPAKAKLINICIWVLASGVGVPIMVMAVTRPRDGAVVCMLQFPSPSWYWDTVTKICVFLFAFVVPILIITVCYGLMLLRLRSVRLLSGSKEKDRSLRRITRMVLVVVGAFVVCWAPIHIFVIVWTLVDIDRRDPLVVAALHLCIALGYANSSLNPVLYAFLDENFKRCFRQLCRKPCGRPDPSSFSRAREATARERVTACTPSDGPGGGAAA

Chain of Kappa-type opioid receptor (Homo sapiens) (P41145 whole entry): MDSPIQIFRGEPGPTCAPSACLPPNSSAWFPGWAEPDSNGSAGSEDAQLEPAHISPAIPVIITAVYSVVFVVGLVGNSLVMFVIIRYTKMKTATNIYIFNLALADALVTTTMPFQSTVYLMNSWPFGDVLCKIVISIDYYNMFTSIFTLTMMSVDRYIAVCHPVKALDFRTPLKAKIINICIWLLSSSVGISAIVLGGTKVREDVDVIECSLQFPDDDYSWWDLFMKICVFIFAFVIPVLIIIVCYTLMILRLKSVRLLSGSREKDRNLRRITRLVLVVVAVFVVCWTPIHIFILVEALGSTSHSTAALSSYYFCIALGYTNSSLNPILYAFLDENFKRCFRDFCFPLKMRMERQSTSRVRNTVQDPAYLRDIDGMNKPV

Structure (SMILES)	Ke [1] [nM]	Ke [2] [nM]	Ke [3] [nM]
C[C@H]1CN(CCCc2ccccc2)CCN1c1cccc(O)c1	4.09	0.88	13.4
C[C@H]1CN(CCCc2ccccc2)C[C@H](C)N1c1cccc(O)c1	123	1650	9000
C[C@@H]1CN(CCCc2ccccc2)CCN1c1cccc(O)c1	1.57	1.01	6.99
Oc1cccc(N2CCN(CCCc3ccccc3)CC2)c1	36.8	8.47	34.3
C[C@H]1CN(CCCc2ccccc2)CC[C@@]1(C)c1cccc(O)c1	0.88	0.1	0.9
C[C@@H]1CN(CCCc2ccccc2)[C@@H](C)CN1c1cccc(O)c1	22.9	18	180
C[C@H]1CN(C)CCN1c1cccc(O)c1	194	508	> 10000
C[C@H]1CN(C)CC[C@@]1(C)c1cccc(O)c1 (relative stereo)	–	29.3	–
C[C@H]1CN(c2cccc(O)c2)[C@@H](C)CN1CCCc1ccccc1	19.5	17.9	23.4
C[C@@H]1CN(c2cccc(O)c2)[C@@H](C)CN1CCCc1ccccc1	4.25	6.14	55.3
